In PubChem BioAssay (NCI):
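Cells were grown in 96-well plates and exposed to each compound for 48 hours at five concentrations; endpoints were interpolated linearly between bracketing concentrations, or set to the highest concentration if not reached. TGI is the concentration that stops growth completely.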

Legend:
Assay in all cases: NCI tumour cell line growth inhibition, 48 h
[1] = test system: HCT-15 colon
[2] = test system: 786-0 renal
[3] = test system: KM12 colon
[4] = test system: HCC-2998 colon
[5] = test system: BT-549 breast
[6] = test system: UO-31 renal
[7] = test system: MDA-MB-231 breast
[8] = test system: NCI/ADR-RES ovarian
[9] = test system: SN12C renal
[10] = test system: ACHN renal
[11] = test system: HCT-116 colon
[12] = test system: SF-268 CNS
[13] = test system: DU-145 prostate
[14] = test system: OVCAR-5 ovarian
[15] = test system: RXF 393 renal
[16] = test system: HOP-62 NSCLC
[17] = test system: OVCAR-8 ovarian
[18] = test system: SNB-19 CNS
[19] = test system: A498 renal
[20] = test system: COLO 205 colon
[21] = test system: SW-620 colon
[22] = test system: SK-MEL-5 melanoma
[23] = test system: MOLT-4 leukemia
[24] = test system: NCI-H23 lung
[25] = test system: HL-60(TB) leukemia
[26] = test system: IGROV1 ovarian
[27] = test system: HS 578T breast
[28] = test system: SR leukemia
[29] = test system: TK-10 renal
[30] = test system: HOP-92 NSCLC
[31] = test system: UACC-257 melanoma
[32] = test system: T-47D breast
[33] = test system: K-562 leukemia
[34] = test system: HT29 colon
[35] = test system: UACC-62 melanoma
[36] = test system: SNB-75 CNS
[37] = test system: SF-295 CNS
[38] = test system: SF-539 CNS
[39] = test system: U251 CNS
[40] = test system: CCRF-CEM leukemia
[41] = test system: OVCAR-3 ovarian
[42] = test system: EKVX NSCLC
[43] = test system: MDA-MB-435
[44] = test system: RPMI-8226 leukemia
[45] = test system: LOX IMVI melanoma
[46] = test system: MCF7 breast
[47] = test system: SK-MEL-2 melanoma
[48] = test system: A549 NSCLC
[49] = test system: M14 melanoma
[50] = test system: MDA-N
[51] = test system: NCI-H226 lung
[52] = test system: NCI-H522 lung
[53] = test system: PC-3 prostate
[54] = test system: SK-MEL-28 melanoma
[55] = test system: CAKI-1 renal
[56] = test system: OVCAR-4 ovarian
[57] = test system: MALME-3M melanoma
[58] = test system: SK-OV-3 ovarian
[59] = test system: NCI-H460 lung

CN(C)Cc1cc(C(=O)/C=C/c2ccc([N+](=O)[O-])cc2)cc(CN(C)C)c1O
TGI [1]: 25.1 µM
TGI [2]: 15.2 µM
TGI [3]: 29.7 µM
TGI [4]: 32.5 µM
TGI [5]: 37.1 µM
TGI [6]: > 100 µM
TGI [7]: 28.5 µM
TGI [8]: 87 µM
TGI [9]: 20.2 µM
TGI [10]: 10.2 µM
TGI [11]: 13.1 µM
TGI [12]: 42.9 µM
TGI [13]: 23 µM
TGI [14]: 34.5 µM
TGI [15]: 38.1 µM
TGI [16]: 19.5 µM
TGI [17]: > 100 µM
TGI [18]: > 100 µM
TGI [19]: 23.9 µM
TGI [20]: 4.67 µM
TGI [21]: 27.1 µM
TGI [22]: 23.4 µM
TGI [23]: 51.2 µM
TGI [24]: 47.5 µM
TGI [25]: 5.46 µM
TGI [26]: 35.6 µM
TGI [27]: 60.3 µM
TGI [28]: 22.2 µM
TGI [29]: 45.7 µM
TGI [30]: 26.2 µM
TGI [31]: 33.6 µM
TGI [32]: 32 µM
TGI [33]: > 100 µM
TGI [34]: 25 µM
TGI [35]: 33.3 µM
TGI [36]: 33.3 µM
TGI [37]: 38.9 µM
TGI [38]: 40.5 µM
TGI [39]: 14.9 µM
TGI [40]: 21.4 µM
TGI [41]: 20.6 µM
TGI [42]: 37.3 µM
TGI [43]: 37.3 µM
TGI [44]: 6.98 µM
TGI [45]: 5.5 µM
TGI [46]: 34.9 µM
TGI [47]: 30.1 µM
TGI [48]: 89 µM
TGI [49]: 23.3 µM
TGI [50]: 24.7 µM
TGI [51]: 19.2 µM
TGI [52]: 20.1 µM
TGI [53]: 33.9 µM

CC12c3c4ccc(C=O)c3Oc3ccc(C=O)c(c31)Oc1ccc(C=O)c(c12)O4
TGI [1]: > 25 µM
TGI [54]: > 25 µM
TGI [2]: > 25 µM
TGI [3]: > 25 µM
TGI [5]: > 25 µM
TGI [6]: > 25 µM
TGI [7]: > 25 µM
TGI [8]: > 25 µM
TGI [9]: > 25 µM
TGI [55]: > 25 µM
TGI [10]: > 25 µM
TGI [11]: > 25 µM
TGI [12]: > 25 µM
TGI [13]: > 25 µM
TGI [14]: > 25 µM
TGI [15]: > 25 µM
TGI [16]: > 25 µM
TGI [17]: > 25 µM
TGI [56]: > 25 µM
TGI [18]: > 25 µM
TGI [19]: > 25 µM
TGI [20]: > 25 µM
TGI [21]: > 25 µM
TGI [23]: > 25 µM
TGI [24]: > 25 µM
TGI [25]: > 25 µM
TGI [26]: > 25 µM
TGI [57]: > 25 µM
TGI [27]: > 25 µM
TGI [28]: > 25 µM
TGI [30]: > 25 µM
TGI [31]: > 25 µM
TGI [32]: > 25 µM
TGI [33]: > 25 µM
TGI [58]: > 25 µM
TGI [34]: > 25 µM
TGI [35]: > 25 µM
TGI [36]: > 25 µM
TGI [37]: > 25 µM
TGI [38]: > 25 µM
TGI [39]: > 25 µM
TGI [40]: > 25 µM
TGI [41]: > 25 µM
TGI [42]: > 25 µM
TGI [43]: > 25 µM
TGI [44]: > 25 µM
TGI [45]: > 25 µM
TGI [46]: > 25 µM
TGI [47]: > 25 µM
TGI [48]: > 25 µM
TGI [49]: > 25 µM
TGI [50]: > 25 µM
TGI [51]: > 25 µM
TGI [52]: > 25 µM
TGI [53]: > 25 µM
TGI [59]: > 25 µM
